# Reference: patent US12162901B2, “N-acetylated sialic acids and related sialosides” (priority 2016, dated 2024)
# T1: BiNanH2 (Bifidobacterium longum, UniProt A0ACD7UU12)
# T1 sequence (A0ACD7UU12 1-394): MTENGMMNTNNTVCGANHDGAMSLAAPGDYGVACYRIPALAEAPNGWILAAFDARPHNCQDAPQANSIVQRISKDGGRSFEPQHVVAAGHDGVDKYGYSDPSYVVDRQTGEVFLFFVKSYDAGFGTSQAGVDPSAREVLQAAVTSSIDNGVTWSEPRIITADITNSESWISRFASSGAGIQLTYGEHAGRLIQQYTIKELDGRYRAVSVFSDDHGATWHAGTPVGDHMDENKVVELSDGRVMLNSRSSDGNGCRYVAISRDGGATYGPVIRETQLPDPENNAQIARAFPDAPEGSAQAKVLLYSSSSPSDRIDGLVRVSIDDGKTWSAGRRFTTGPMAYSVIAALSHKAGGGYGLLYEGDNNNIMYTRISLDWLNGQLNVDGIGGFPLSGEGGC
# B1: PmST1 (α2-3-sialidase activity) (Pasteurella multocida) (protein)
# chain: KTITLYLDPASLPALNQLMDFTQNNEDKTHPRIFGLSRFKIPDNIITQYQNIHFVELKDNRPTEALFTILDQYPGNIELNIHLNIAHSVQLIRPILAYRFKHLDRVSIQQLNLYDDGSMEYVDLEKEENKDISAEIKQAEKQLSHYLLTGKIKFDNPTIARYVWQSAFPVKYHFLSTDYFEKAEFLQPLKEYLAENYQKMDWTAYQQLTPEQQAFYLTLVGFNDEVKQSLEVQQAKFIFTGTTTWEGNTDVREYYAQQQLNLLNHFTQAEGDLFIGDHYKIYFKGHPRGGEINDYILNNAKNITNIPANISFEVLMMTGLLPDKVGGVASSLYFSLPKEKISHIIFTSNKQVKSKEDALNNPYVKVMRRLGIIDESQVIFWDSLKQL
# Legend:
# [1] = biological target: T2, human cytosolic sialidase hNEU2 (Homo sapiens, UniProt Q9Y3R4); experiment: Sialidase substrate specificity of Leg glycosides (HPLC/capillary electrophoresis), hNEU2; type: biochemical; details: 37° C., 16 hs, pH 5.0
# T2 construct: made in house
# A. ureafaciens sialidase = experiment: Sialidase substrate specificity of Leg glycosides (HPLC/capillary electrophoresis), A. ureafaciens sialidase; type: biochemical, Arthrobacter ureafaciens; details: pH 5.5
# V. cholerae sialidase = biological target: T3, V. cholerae sialidase (Vibrio cholerae serotype O1, UniProt P0C6E9); experiment: Sialidase substrate specificity of Leg glycosides (HPLC/capillary electrophoresis), V. cholerae sialidase; type: biochemical; details: pH 5.5
# T3 construct: purchased Roche
# [2] = biological target: C. perfringens sialidase (CpNanH) (Clostridium perfringens, UniProt P10481); type: biochemical; details: 37° C., 16 hs, pH 5.0
# BiNanH2 [3] = biological target: T1, BiNanH2; experiment: Sialidase substrate specificity of Leg glycosides (HPLC/capillary electrophoresis), BiNanH2; type: biochemical, Bifidobacterium infantis; details: 37° C., 16 hs, pH 5.0
# SpNanA = biological target: T4, SpNanA (Streptococcus pneumoniae, UniProt P62575); experiment: Sialidase substrate specificity of Leg glycosides (HPLC/capillary electrophoresis), SpNanA; type: biochemical; details: 37° C., 16 hs, pH 6.0
# T4 construct: made in house
# SpNanB = biological target: T5, SpNanB (Streptococcus pneumoniae serotype 4, UniProt Q54727, E68D/K536E/K577E/N393D/S59P); experiment: Sialidase substrate specificity of Leg glycosides (HPLC/capillary electrophoresis), SpNanB; type: biochemical; details: 37° C., 16 hs, pH 6.0
# T5 construct: made in house
# SpNanC [4] = biological target: T6, SpNanC (Streptococcus pneumoniae, UniProt A0A0H2UQE4); experiment: Sialidase substrate specificity of Leg glycosides (HPLC/capillary electrophoresis), SpNanC; type: biochemical; details: 37° C., 16 hs, pH 6.5
# BiNanH2 [5] = biological target: T1, BiNanH2; experiment: HPLC-based kinetic study of BiNanH2; type: biochemical, Bifidobacterium infantis; details: for activity of BiNanH2 towards the substrate: kinetic study, HPLC; for kcat: BiNanH2, apparent, NaOAc buffer pH 5.0, 37° C., 10 min, spread and × 10^2 on wrapped line below
# Procedure: (§1) HPLC-based assays were carried out as described above for microtiter plate-based assays. The reactions were stopped by adding 40 μL of pre-chilled ethanol. The mixtures were then centrifuged and the supernatants were analyzed by Agilent 1290 Infinity HPLC system at 315 nm. […] A C18 reverse phase Rapid Resolution High Definition column (EclipsePlusC18 RRHD 1.8 μm, 2.1×50 mm, Agilent) was used for analyzing samples with Neu5Ac9NAcα2-3GalβpNP (2.1) or Neu5,9Ac2α2-6GalβpNP (2.20).
# (§2) The reactions were stopped by adding 40 μL of pre-chilled ethanol. The mixtures were then centrifuged and the supernatants were analyzed by the HPLC system described above for HPLC-based assays. Apparent kinetic parameters were obtained by varying substrate concentrations from 0.1-40 mM (0.1, 0.2, 0.4, 1, 2, 4, 10, 20, and 40 mM) and fitting the data (the average values of duplicate assay results) into the Michaelis-Menten equation using Grafit 5.0.
# SpNanC [6] = biological target: T6, SpNanC; experiment: HPLC-based kinetic study of SpNanC; type: biochemical; details: for kcat: SpNanC, apparent, MES buffer pH 6.5, 37° C., 10 min, spread and × 10^2 on wrapped line below
# Procedure: as §1
# as §2, with “After stopping the” for “The”, “reactions” for “reactions were stopped”, “ethanol, the” for “ethanol. The”, “were” for “were then”, “system as” for “system”, “above.” for “above for HPLC-based assays.”
# [7] = substrate: CC(=O)N[C@@H]1C(O)C[C@](OC2C(O)[C@H](Oc3ccc([N+](=O)[O-])cc3)OC(CO)[C@@H]2O)(C(=O)O)OC1[C@H](NC(C)=O)[C@@H](C)O; experiment: Kinetic studies for PmST1 α2-3-sialidase activity (HPLC); type: biochemical, Pasteurella multocida; details: other: PmST1, apparent, NaOAc buffer pH 5.5, CMP (0.4 mM), 37° C., 10 min
# Procedure: as §2, with “Kinetic studies for PmST1 were performed in duplicates at 37° C. for 10 min. […] The reactions” for “The reactions”, “by adding 20 μL of” for “by adding 40 μL of”, “above for sialidase substrate specificity studies assays. Apparent” for “above for HPLC-based assays. Apparent”
# [8] = substrate: CC(=O)N[C@H]1[C@H]([C@H](O)[C@H](O)CO)O[C@@](O[C@H]2[C@@H](O)[C@@H](CO)O[C@@H](Oc3ccc([N+](=O)[O-])cc3)[C@@H]2O)(C(=O)O)C[C@@H]1O; experiment: as above; type: biochemical, Pasteurella multocida; details: other: PmST1, apparent, NaOAc buffer pH 5.5, CMP (0.4 mM), 37° C., 10 min
# Procedure: as §2, with “Kinetic studies for PmST1 were performed in duplicates at 37° C. for 10 min. […] The reactions” for “The reactions”, “by adding 20 μL of” for “by adding 40 μL of”, “above for sialidase substrate specificity studies assays. Apparent” for “above for HPLC-based assays. Apparent”
# T2 sequence (Q9Y3R4 whole entry): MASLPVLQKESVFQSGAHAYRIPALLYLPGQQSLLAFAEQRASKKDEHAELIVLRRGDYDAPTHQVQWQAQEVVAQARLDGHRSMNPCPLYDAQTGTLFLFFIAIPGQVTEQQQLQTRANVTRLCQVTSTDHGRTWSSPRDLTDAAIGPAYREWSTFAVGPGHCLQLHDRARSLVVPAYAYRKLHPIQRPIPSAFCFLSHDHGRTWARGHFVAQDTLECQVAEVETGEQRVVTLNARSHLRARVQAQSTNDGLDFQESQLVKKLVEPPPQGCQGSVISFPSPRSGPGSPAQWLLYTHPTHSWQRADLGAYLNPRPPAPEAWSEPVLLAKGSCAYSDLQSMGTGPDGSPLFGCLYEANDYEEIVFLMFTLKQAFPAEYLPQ
molecule,measurement,setting,value
"C[C@@H](O)[C@@H](N=[N+]=[N-])C1O[C@@](OCC2O[C@@H](Oc3ccc([N+](=O)[O-])cc3)C(O)C(O)[C@H]2O)(C(=O)O)CC(O)[C@H]1N=[N+]=[N-] (stereo partly drawn) [3-14, Leg5,7diN3α2-6GalβpNP]",activity of hNEU2 for the compound,[1],did not show activity
same,activity of A. ureafaciens sialidase for the compound,A. ureafaciens sialidase,did not show activity
same,activity of V. cholerae sialidase for the compound,V. cholerae sialidase,did not show activity
same,activity of C. perfringens sialidase (CpNanH) for the compound,[2],did not show activity
same,activity of BiNanH2 for the compound,BiNanH2 [3],did not show activity
same,activity of SpNanA for the compound,SpNanA,did not show activity
same,activity of SpNanB for the compound,SpNanB,did not show activity
same,activity of SpNanC for the compound,SpNanC [4],did not show activity
"CC(=O)NC1C(O)CC(OCC2OC(Oc3ccc([N+](=O)[O-])cc3)C(O)C(O)C2O)(C(=O)O)OC1C(O)C(O)COC(C)=O (stereo not drawn) [2.20, Neu5,9Ac2α2-6GalβpNP]",activity of BiNanH2 towards the substrate,BiNanH2 [5],not high enough for obtaining apparent kinetics parameters
"CC(=O)N[C@H]1[C@H]([C@H](O)[C@H](O)CO)O[C@@](O[C@H]2[C@@H](O)[C@@H](CO)O[C@@H](Oc3ccc([N+](=O)[O-])cc3)[C@@H]2O)(C(=O)O)C[C@@H]1O [2.17, Neu5Acα2-3GalβpNP]",kcat,SpNanC [6],(3.65 × 10^2 s^−1
same,kcat,BiNanH2 [5],(1.66 × 10^2 s^−1
"CC(=O)NC[C@@H](O)[C@@H](O)[C@@H]1O[C@@](O[C@H]2[C@@H](O)[C@@H](CO)O[C@@H](Oc3ccc([N+](=O)[O-])cc3)[C@@H]2O)(C(=O)O)C[C@H](O)[C@H]1NC(C)=O [2.1, 4-Nitrophenyl O-(5,9-diacetamido-3,5,9-trideoxy-D-glycero-α-D-galacto-2-nonulopyranosylonic acid)-(2→3)-O-β-D-galactopyranoside]",kcat,SpNanC [6],(3.38 × 10^2 s^−1
same,kcat,BiNanH2 [5],(1.08 × 10^2 s^−1
"CC(=O)NC[C@@H](O)[C@@H](O)[C@@H]1O[C@@](OC[C@H]2O[C@@H](Oc3ccc([N+](=O)[O-])cc3)[C@H](O)[C@@H](O)[C@H]2O)(C(=O)O)C[C@H](O)[C@H]1NC(C)=O [2.8, 4-Nitrophenyl O-(5,9-diacetamido-3,5,9-trideoxy-D-glycero-α-D-galacto-2-nonulopyranosylonic acid)-(2→6)-O-β-D-galactopyranoside]",kcat,BiNanH2 [5],(8.07 × 10^2 s^−1
"CC(=O)N[C@H]1[C@H]([C@H](O)[C@H](O)CO)O[C@@](OC[C@H]2O[C@@H](Oc3ccc([N+](=O)[O-])cc3)[C@H](O)[C@@H](O)[C@H]2O)(C(=O)O)C[C@@H]1O [2.18, Neu5Acα2-6GalβpNP]",kcat,BiNanH2 [5],(3.31 × 10^2 s^−1
"CC(=O)N[C@@H]1C(O)C[C@](OCC2O[C@@H](Oc3ccc([N+](=O)[O-])cc3)C(O)C(O)[C@H]2O)(C(=O)O)OC1[C@H](NC(C)=O)[C@@H](C)O (stereo partly drawn) [3-20, Leg5,7Ac2α2-6GalβpNP]",activity of hNEU2 for the compound,[1],did not show activity
same,activity of A. ureafaciens sialidase for the compound,A. ureafaciens sialidase,did not show activity
same,activity of V. cholerae sialidase for the compound,V. cholerae sialidase,did not show activity
same,activity of C. perfringens sialidase (CpNanH) for the compound,[2],did not show activity
same,activity of BiNanH2 for the compound,BiNanH2 [3],did not show activity
same,activity of SpNanA for the compound,SpNanA,did not show activity
same,activity of SpNanB for the compound,SpNanB,did not show activity
same,activity of SpNanC for the compound,SpNanC [4],did not show activity
"CC(=O)N[C@H]1[C@H]([C@H](O)[C@H](O)COC(C)=O)O[C@@](O[C@H]2[C@@H](O)[C@@H](CO)O[C@@H](Oc3ccc([N+](=O)[O-])cc3)[C@@H]2O)(C(=O)O)C[C@@H]1O [2.19, Neu5,9Ac2α2-3GalβpNP]","catalytic efficiency of SpNanC, fold higher than for 2.1 and 2.17",SpNanC [6]; SpNanC kcat/KM ratio,2.2-2.3 fold
same,kcat,SpNanC [6],(3.78 × 10^2 s^−1
same,activity of BiNanH2 towards the substrate,BiNanH2 [5],not high enough for obtaining apparent kinetics parameters
B1,Km,[7],17.38 ± 0.70 mM
same,kcat,[7],1.16 ± 0.0217 s⁻¹
same,kcat/Km,[7],66.7 M⁻¹ s⁻¹
same,Km,[8],4.73 ± 0.31 mM
same,kcat,[8],9.26 ± 0.185 s⁻¹
same,kcat/Km,[8],1950 M⁻¹ s⁻¹
